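Tested at 5 concentrations; 48 h exposure; 96-well plates; endpoints linearly interpolated, else capped at highest concentration. GI50 marks 50% less growth.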 Calls of active or inactive are those of the source. Cut-off read from the data, not from the text of the source: active = GI50 up to about 1.1 µM and inactive = higher.

The values below come from ChEMBL document CHEMBL1201862, “PubChem BioAssay data set” (2004).

Common to all, as to experiment: NCI anticancer screen, dose series, 48 h
Assay [1] has as its system 786-0.
Assay [2] concerns BT-549.
The test system of assay [3] is CAKI-1.
Assay [4] relates to EKVX.
Assay [5] relates to IGROV-1.
Assay [6] concerns M14.
Assay [7] relates to MOLT-4.
Assay [8] deals with Malme-3M.
Assay [9] deals with NCI-H460.
The test system of assay [10] is OVCAR-3.
The test system of assay [11] is RPMI-8226.
Assay [12] deals with RXF 393.
Assay [13] deals with SF-295.
The subject of assay [14] is SK-MEL-2.
Assay [15] deals with SK-MEL-5.
For assay [16], the system named is SK-OV-3.
Assay [17] concerns SNB-75.
Assay [18] deals with TK-10.
Assay [19] deals with UACC-257.
Assay [20] relates to SNB-78.

Take `CC(=O)c1c(N=[N+]=[N-])c2cccc3c2n(c1=O)CCC3`: the GI50 is 14.7 µM (inactive) in assay [1]; 20.4 µM (inactive) in assay [2]; 28.3 µM (inactive) in assay [3]; 21.3 µM (inactive) in assay [4]; 20.1 µM (inactive) in assay [5]; 13.6 µM (inactive) in [6]. In addition, the GI50 was 23.4 µM (inactive) in assay [7]; 13.2 µM (inactive) in [8]; 14.4 µM (inactive) in [9]; 4.21 µM (inactive) in assay [10]; 25.9 µM (inactive) in [11]; 20.5 µM (inactive) in [12]. Further, the GI50 is 24.7 µM (inactive) in assay [13]; 21.7 µM (inactive) in assay [14]; 14.7 µM (inactive) in assay [15]; 46.7 µM (inactive) in assay [16]; 24.8 µM (inactive) in assay [17]; 25.4 µM (inactive) in [18]. For the same molecule, the GI50 in [19] was 16.6 µM (inactive).
On to `Cn1cc(-c2cnc(-c3cn(C)c4ccccc34)cn2)c2ccccc21`, for which the GI50 in assay [1] was 4.6 µM (inactive); in [2], 14.1 µM (inactive); in [3] it was 6.67 µM (inactive); in [4], 10.1 µM (inactive); in [5], 3.8 µM (inactive); in assay [6], 3.47 µM (inactive). Besides, the GI50 in assay [7] is 5.66 µM (inactive); in assay [8] it was 5.11 µM (inactive); in assay [9] it was 4.51 µM (inactive); in assay [10], 3.04 µM (inactive); in assay [11] it was 4.98 µM (inactive); in assay [12], 3.25 µM (inactive). Further, the GI50 in [13] was 2.44 µM (inactive); in assay [14] it was 5.87 µM (inactive); in assay [15], 0.288 µM (active); in [16], 14.6 µM (inactive); in assay [17], 2.77 µM (inactive); in assay [18] it was 18.6 µM (inactive). Moreover, in [19], the GI50 was 16 µM (inactive).
As to `C[C@@]12C[C@@H](c3ccccc3O1)N1Cc3ccccc3CSC1=N2`, the GI50 in assay [1] is 38.8 µM (inactive); in assay [2] it was 95.9 µM (inactive); in [3] it was > 100 µM (inactive); in assay [4] it was > 100 µM (inactive); in [5] it was > 100 µM (inactive); in [6], 90.4 µM (inactive). Moreover, the GI50 in [7] was 56.6 µM (inactive); in assay [8] it was 79.8 µM (inactive); in assay [9], 42.8 µM (inactive); in assay [10] it was 35.4 µM (inactive); in [11], > 100 µM (inactive); in [12], > 100 µM (inactive). Also, the GI50 was > 100 µM (inactive) in assay [13]; > 100 µM (inactive) in assay [14]; 44.4 µM (inactive) in assay [15]; > 100 µM (inactive) in assay [16]; > 100 µM (inactive) in assay [17]; 57.7 µM (inactive) in [18]. In addition, the GI50 in [19] is 66.5 µM (inactive).
Turning to `Cc1cc(S(=O)(=O)Nc2nc(N)nc(N(C)C)n2)c(S)cc1Cl`, the GI50 in [1], in assay [2], in assay [3], in assay [4], in assay [5] and in assay [6] was > 10 µM (inactive) each time. Further, the GI50 in [7], in [8], in assay [9], in [10], in assay [11] and in [12] was > 10 µM (inactive) in each case. Also, the GI50 in [13], in [14], in [15], in [16], in [17] and in assay [18] was > 10 µM (inactive) throughout. In addition, the GI50 in assay [19] is > 10 µM (inactive).
For `CC1(C)N/C(=C\[N+](=O)[O-])C(C)(C)N1O`, the GI50 in assay [1], in assay [2], in [3], in assay [4], in assay [5] and in assay [6] was > 10 µM (inactive) in each case. In addition, the GI50 in assay [7], in [8], in assay [9], in assay [10], in [11] and in assay [12] was > 10 µM (inactive) throughout. The GI50 in assay [13], in assay [14], in assay [15], in [16], in [17] and in [18] was > 10 µM (inactive) in each case. The GI50 in [19] was > 10 µM (inactive).
Take `CCOC(=O)Nc1ccc(S(=O)(=O)I)cc1.CCOC(=O)Nc1ccc(S(=O)(=O)I)cc1.CNC(=O)N=O.NC(=O)OCCCl`: the GI50 in assay [1] is > 100 µM (inactive); in assay [3], > 100 µM (inactive); in assay [5], > 100 µM (inactive); in [6], > 100 µM (inactive); in assay [7], > 100 µM (inactive); in [8] it was 49.8 µM (inactive). Further, the GI50 in assay [9] is > 100 µM (inactive); in assay [13], 78 µM (inactive); in assay [14], 43.6 µM (inactive); in [15] it was > 100 µM (inactive); in assay [16], > 100 µM (inactive); in assay [17], 21.9 µM (inactive). In addition, the values for the GI50 in [20], in assay [18] and in [19] were > 100 µM (inactive), > 100 µM (inactive) and 74.6 µM (inactive), respectively.
`COC(=O)C(C)(Cc1ccc2c(c1)nnn2C(C)=O)NC(C)=O` (stereo not given): the GI50 in assay [1], in assay [2], in assay [3], in assay [4], in assay [5] and in [6] was > 100 µM (inactive) each time. For the same molecule, the GI50 in [7], in assay [8], in assay [9], in assay [10], in assay [11] and in assay [12] was > 100 µM (inactive) throughout. In addition, the GI50 in assay [13], in assay [14], in assay [15], in assay [16], in assay [17] and in [18] was > 100 µM (inactive) in each case. For the same molecule, the GI50 in assay [19] is > 100 µM (inactive).
Turning to `CC(C)(C)c1cc(/C=C(\C#N)C(=O)NCCO)cc(C(C)(C)C)c1O`, the GI50 in assay [1] was 21.8 µM (inactive); in [2], 25.1 µM (inactive); in assay [3], 24.5 µM (inactive); in [4] it was 24.5 µM (inactive); in assay [5], 40.7 µM (inactive); in assay [6], 17.1 µM (inactive). The GI50 in assay [7] was 18.7 µM (inactive); in assay [8] it was 17.3 µM (inactive); in assay [9] it was 20.7 µM (inactive); in assay [10], 14.6 µM (inactive); in assay [11] it was 12.3 µM (inactive); in [12] it was 27.4 µM (inactive). In addition, the GI50 in assay [13] was 16.9 µM (inactive); in [14], 17.6 µM (inactive); in assay [15], 14.9 µM (inactive); in assay [16], 20.7 µM (inactive); in assay [17] it was 31.8 µM (inactive); in [18], 22.3 µM (inactive). Also, in assay [19], the GI50 is 17.5 µM (inactive).
Take `Cc1sc2ncnc(NCCc3ccccc3)c2c1C`: the GI50 in [1] is 16 µM (inactive); in [2], 15.2 µM (inactive); in [3], 7.53 µM (inactive); in assay [4], 1.68 µM (inactive); in assay [5] it was 12.7 µM (inactive); in [6], 18.1 µM (inactive). The GI50 was 14.9 µM (inactive) in assay [7]; 17.5 µM (inactive) in assay [8]; 8.99 µM (inactive) in assay [9]; 14.2 µM (inactive) in [10]; 10.2 µM (inactive) in assay [11]; 12.3 µM (inactive) in assay [12]. Moreover, the GI50 in [13] was 4.78 µM (inactive); in [14], 14.8 µM (inactive); in assay [15] it was 1.33 µM (inactive); in assay [16], 22.6 µM (inactive); in [17], 16.4 µM (inactive); in [18] it was 11.4 µM (inactive). In addition, the GI50 in assay [19] was 1.04 µM (active).
Take `CC(=O)CC(=O)Nc1ccc2ccccc2c1`: the GI50 in assay [1] is > 100 µM (inactive); in [2], > 100 µM (inactive); in [3], 84.3 µM (inactive); in assay [4], > 100 µM (inactive); in [5], > 100 µM (inactive); in assay [6], > 100 µM (inactive). The GI50 was 36.7 µM (inactive) in assay [7]; > 100 µM (inactive) in assay [8]; > 100 µM (inactive) in assay [9]; 34.6 µM (inactive) in [10]; 45.6 µM (inactive) in assay [11]; > 100 µM (inactive) in assay [12]. The GI50 in assay [13] is 69.7 µM (inactive); in assay [14] it was > 100 µM (inactive); in assay [15] it was 72.4 µM (inactive); in assay [16], > 100 µM (inactive); in assay [17], > 100 µM (inactive); in [18], 65.8 µM (inactive). Moreover, the GI50 in assay [19] is 51.9 µM (inactive).
Turning to `COc1cccc2c1CCc1cc3c(N)nc(N)nc3nc1-2`, the GI50 in [1] is 2.08 µM (inactive); in [2], 26.4 µM (inactive); in assay [3], 5.45 µM (inactive); in [4], 2.12 µM (inactive); in assay [5] it was 5.86 µM (inactive); in [6], 4.22 µM (inactive). For the same molecule, the GI50 in assay [7] is 0.653 µM (active); in assay [8], 5.14 µM (inactive); in [9], 4.83 µM (inactive); in assay [10] it was 7.26 µM (inactive); in assay [11], 2.12 µM (inactive); in assay [12] it was 3.02 µM (inactive). The GI50 in [13] is 4.42 µM (inactive); in assay [14], 13.3 µM (inactive); in assay [15], 3.09 µM (inactive); in assay [16], 17.7 µM (inactive); in assay [17], 5.98 µM (inactive); in assay [18], 10.9 µM (inactive). Further, in assay [19], the GI50 is 5.73 µM (inactive).
